From ChEMBL document CHEMBL1133417, “N-[[1-(2-phenylethyl)pyrrolidin-2-yl]methyl]cyclohexanecarboxamides as selective 5-HT1A receptor agonists” (Bioorg Med Chem Lett, 2000)

Key:
[1] = target: T1, 5-hydroxytryptamine receptor 1A (Rattus norvegicus, UniProt P19327); assay: Inhibitory concentration against binding of 5-hydroxytryptamine 1A receptor from striata of male Wistar rats by displacement of [3H]8-OH-DPAT
T1 sequence (P19327 whole entry): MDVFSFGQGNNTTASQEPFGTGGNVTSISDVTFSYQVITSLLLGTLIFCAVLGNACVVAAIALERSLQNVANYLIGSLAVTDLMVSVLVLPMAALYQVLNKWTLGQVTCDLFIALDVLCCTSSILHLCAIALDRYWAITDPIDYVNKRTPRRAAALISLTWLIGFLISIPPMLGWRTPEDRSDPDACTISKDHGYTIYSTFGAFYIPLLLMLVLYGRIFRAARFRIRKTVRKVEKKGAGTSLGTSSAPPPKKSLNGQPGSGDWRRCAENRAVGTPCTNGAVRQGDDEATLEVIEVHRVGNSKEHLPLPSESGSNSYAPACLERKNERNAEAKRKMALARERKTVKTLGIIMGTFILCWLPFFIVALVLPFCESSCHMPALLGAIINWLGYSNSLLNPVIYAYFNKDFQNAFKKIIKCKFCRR

[2] = target: T2, Serotonin 2 (5-HT2) receptor (Rattus norvegicus, UniProt P30994+P08909+P14842); assay: Inhibitory concentration against 5-hydroxytryptamine 2 receptor from striata of male Wistar rats by displacement of [3H]-ketanserin; type: protein assay
D(2) dopamine receptor [3] = target: T3, D(2) dopamine receptor (Homo sapiens, UniProt P14416); assay: Inhibitory concentration against binding of Dopamine receptor D2 by displacement of [3H]spiperone
[4] = target: T2, Serotonin 2 (5-HT2) receptor; assay: Binding affinity for 5-hydroxytryptamine 2 receptor from striata of male Wistar rats by displacement of [3H]ketanserin; type: protein assay
[5] = target: T1, 5-hydroxytryptamine receptor 1A; assay: Displacement of [3H]8-OH-DPAT from rat striata 5-hydroxytryptamine 1A receptor
[6] = target: T2, Serotonin 2 (5-HT2) receptor; assay: Inhibitory concentration against binding of 5-hydroxytryptamine 2 receptor from striata of male Wistar rats by displacement of [3H]-ketanserin; type: protein assay
D(2) dopamine receptor [7] = target: T3, D(2) dopamine receptor; assay: Binding affinity for Dopamine receptor D2 by displacement of [3H]-spiperone

T3 sequence (P14416 whole entry): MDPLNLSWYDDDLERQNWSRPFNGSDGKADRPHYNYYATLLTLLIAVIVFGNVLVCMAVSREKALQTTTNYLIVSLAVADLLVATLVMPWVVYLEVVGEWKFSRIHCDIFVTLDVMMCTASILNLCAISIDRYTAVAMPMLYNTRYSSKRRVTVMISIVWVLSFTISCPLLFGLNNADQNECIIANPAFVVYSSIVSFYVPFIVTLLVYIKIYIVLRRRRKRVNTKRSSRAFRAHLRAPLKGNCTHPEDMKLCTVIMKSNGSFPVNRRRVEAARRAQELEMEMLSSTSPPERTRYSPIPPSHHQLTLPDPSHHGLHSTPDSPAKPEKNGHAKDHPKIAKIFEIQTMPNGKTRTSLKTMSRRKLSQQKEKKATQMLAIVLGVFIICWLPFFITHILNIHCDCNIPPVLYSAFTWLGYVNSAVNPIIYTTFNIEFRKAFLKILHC

| SMILES | IC50 (D(2) dopamine receptor [3]) [nM] | Ki [4] [nM l-1] | Ki [5] [nM] | Ki (D(2) dopamine receptor [7]) [nM] | further results |
| --- | --- | --- | --- | --- | --- |
| O=C(NC[C@H]1CCCN1CCc1ccccc1)c1ccccc1 | > 1000 |  |  |  | IC50 [1]: > 1000 nM; IC50 [2]: > 1000 nM l-1 |
| O=C(NC[C@@H]1CCCN1CCc1ccccc1)c1ccccc1 | > 1000 | 430 | 4.6 |  |  |
| CSc1cccc(C(=O)NC[C@H]2CCCN2CCc2ccccc2)c1 | > 1000 |  | 110 |  | IC50 [6]: > 1000 nM l-1 |
| CN1CCOc2c(C(=O)NC[C@H]3CCCN3CCc3ccccc3)cc(Cl)cc21 |  |  |  |  | IC50 [6]: > 1000 nM l-1 |
| CN1CCOc2c(C(=O)NC[C@@H]3CCCN3CCc3ccccc3)cc(Cl)cc21 |  |  |  |  | Ki ([4]; read-out: Ki): 280 nM |
| CSc1cccc(C(=O)NC[C@@H]2CCCN2CCc2ccccc2)c1 | > 1000 | 160 | 4.3 |  |  |
| COc1ccc(SC)cc1C(=O)NC[C@@H]1CCCN1CCc1ccccc1 |  | 170 | 24 | 460 |  |
| O=C(NC[C@H]1CCCN1CCc1ccccc1)C1CCCCC1 | > 1000 |  | 190 |  | IC50 [2]: > 1000 nM l-1 |
| O=C(NC[C@@H]1CCCN1CCc1ccccc1)C1CCCCC1 | > 1000 | 240 | 0.49 |  |  |
| CCCN(CCC)C1CCc2cccc(O)c2C1 (stereo unspecified) [8-OH-DPAT] |  |  |  |  | IC50 [2]: > 1000 nM l-1 |
| O=C(c1ccc(F)cc1)C1CCN(CCn2c(=O)[nH]c3ccccc3c2=O)CC1 [KETANSERIN] |  |  |  | 240 | IC50 [1]: > 1000 nM |

The next lines start with results.

| IC50 (D(2) dopamine receptor [3]) [nM] | Ki [4] [nM l-1] | Ki [5] [nM] | Ki (D(2) dopamine receptor [7]) [nM] | SMILES | further results |
| --- | --- | --- | --- | --- | --- |
|  | 660 | 21 | 120 | COc1cc2c(c(C(=O)NC[C@@H]3CCCN3CCc3ccccc3)c1)OCC2 |  |
|  | 430 | 100 | 6.7 | CSc1cc2c(c(C(=O)NC[C@H]3CCCN3CCc3ccccc3)c1)OCC2 |  |
|  |  |  | 630 | CCCCN1CCC[C@@H]1CNC(=O)c1cc(Cl)cc2c1OCCN2C | Ki ([4]; read-out: Ki): 86 nM |
|  |  |  | 12 | CCCCN1CCC[C@H]1CNC(=O)c1cc(Cl)cc2c1OCCN2C | Ki ([4]; read-out: Ki): 300 nM |
